US20120053200A1, “BACE 2 INHIBITORS” (priority 2010, published 2012)

Each compound was assayed against T1, BACE2 (Rattus norvegicus, UniProt Q6IE75) (assay: Assay for BACE inhibition by measuring cellular TMEM27 cleavage (INS-TMEM27 cells, ELISA of shed TMEM27)). Settings: inhibition of human TMEM27 cleavage by endogenous cellular BACE2 in INS1e-derived INS-TMEM27 rat cell line; ELISA of shed TMEM27 in supernatant.
T1 construct: endogenous cellular BACE2 in the Ins1e rat cell line; endogenous in cells; host or cells: INS-TMEM27 (INS1e-derived rat beta-cell line with doxycycline-inducible full-length hTMEM27)
T1 sequence (Q6IE75 63-514): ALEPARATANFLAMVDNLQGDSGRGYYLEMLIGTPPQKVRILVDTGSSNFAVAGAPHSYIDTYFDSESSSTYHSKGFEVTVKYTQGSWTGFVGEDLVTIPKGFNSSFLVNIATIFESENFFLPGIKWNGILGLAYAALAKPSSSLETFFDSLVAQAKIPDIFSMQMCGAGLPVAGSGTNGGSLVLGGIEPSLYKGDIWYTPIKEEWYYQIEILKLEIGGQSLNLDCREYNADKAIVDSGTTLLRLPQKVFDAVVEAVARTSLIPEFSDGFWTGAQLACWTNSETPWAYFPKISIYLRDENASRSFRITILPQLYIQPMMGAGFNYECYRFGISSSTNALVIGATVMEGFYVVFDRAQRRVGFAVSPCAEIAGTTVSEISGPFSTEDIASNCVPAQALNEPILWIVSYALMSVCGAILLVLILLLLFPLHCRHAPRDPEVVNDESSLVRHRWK
Assay type: cell-based
Excerpt: Assay for […] Inhibition by Measuring Cellular TMEM27 Cleavage
This assay uses the principle of inhibition of human TMEM27 cleavage by endogenous cellular BACE2 in the Ins1e rat cell line and shedding from the cell surface into the culture medium, followed by detection in an ELISA assay. Inhibition of BACE2 prevents the cleavage and shedding in a dose-dependent manner.
The stable cell line “INS-TMEM27” represents an INS1e-derived cell line with inducible expression (using the TetOn system) of full-length hTMEM27 in a doxycycline-dependent manner. The cells were cultured throughout the experiment in RPMI1640+Glutamax (Invitrogen) Penicillin/Streptomycin, 10% Fetal bovine serum, 100 mM pyruvate, […] beta-mercatptoethanol, 100 micrograms/ml G418 and 100 microgram/ml hygromycin and were grown in adherent culture at 37° C. in a standard CO2 cell culture incubator.
INS-TMEM27 cells were seeded in 96-well plates. After 2 days in culture, BACE2 inhibitor was added in a range of concentrations as required by the assay and after a further two hours, doxycycline was added to a final concentration of 500 ng/ml. The cells were incubated for a further 46 hours and the supernatant harvested for detection of shed TMEM27.
An ELISA assay (using a pair of mouse anti-human-TMEM27 antibodies, raised against the extracellular domain of TMEM27) was used for detection of TMEM27 in the culture medium. An IC50 for BACE2 inhibition was calculated using the ELISA readout for each inhibitor concentration with standard curve-fitting software.
The inhibitory activity, given as an IC50 value, of the compounds of Examples 1 to 32 and 34 to 74 were as follows.
For `Cc1csc(CN(C)C(=O)c2cccc(C(=O)N[C@@H](Cc3ccccc3)[C@H](O)CNCc3cccc(C(F)(F)F)c3)c2)n1` [Example 1, N-[(1S,2R)-1-Benzyl-2-hydroxy-3-(3-trifluoromethyl-benzylamino)-propyl]-N′-methyl-N′-(4-methyl-thiazol-2-ylmethyl)-isophthalamide], the IC50 was 0.205 µM.
`O=C(N[C@@H](Cc1ccccc1)[C@H](O)CNCc1cccc(C(F)(F)F)c1)c1cccc(C(=O)N2CCCC2c2ccncc2)c1` (stereo partly drawn) [Example 5, N-[(1S,2R)-1-Benzyl-2-hydroxy-3-(3-trifluoromethyl-benzylamino)-propyl]-3-(2-pyridin-4-yl-pyrrolidine-1-carbonyl)-benzamide] showed an IC50 of 0.14 µM.
In the case of `Cc1cc(C2CCCN2C(=O)c2cccc(C(=O)N[C@@H](Cc3ccccc3)[C@H](O)CNCc3cccc(C(F)(F)F)c3)c2)ccc1Cl` (stereo partly drawn) [Example 60, N-[(1S,2R)-1-Benzyl-2-hydroxy-3-(3-trifluoromethyl-benzylamino)-propyl]-3-[2-(4-chloro-3-methyl-phenyl)-pyrrolidine-1-carbonyl]-benzamide], the IC50 is reported as 0.267 µM.
`Cc1cccc(C2CCCN2C(=O)c2cccc(C(=O)N[C@@H](Cc3ccccc3)[C@H](O)CNCc3cccc(C(F)(F)F)c3)c2)c1` (stereo partly drawn) [Example 58, N-[(1S,2R)-1-Benzyl-2-hydroxy-3-(3-trifluoromethyl-benzylamino)-propyl]-3-(2-m-tolyl-pyrrolidine-1-carbonyl)-benzamide] showed an IC50 of 0.089 µM.
With `COc1cccc(CNC[C@@H](O)[C@H](Cc2ccccc2)NC(=O)c2cccc(C(=O)N(C)Cc3ccccn3)c2)c1` [Example 28, N-[(1S,2R)-1-Benzyl-2-hydroxy-3-(3-methoxy-benzylamino)-propyl]-N′-methyl-N′-pyridin-2-ylmethyl-isophthalamide] the IC50 was 0.511 µM.
`CN(Cc1ccccn1)C(=O)c1cccc(C(=O)N[C@@H](Cc2ccccc2)[C@H](O)CNCc2cccc(OC(F)(F)F)c2)c1` [Example 29, N-[(1S,2R)-1-Benzyl-2-hydroxy-3-(3-trifluoromethoxy-benzylamino)-propyl]-N′-methyl-N′-pyridin-2-ylmethyl-isophthalamide] was tested, and the IC50 was 0.112 µM.
Compound `O=C(N[C@@H](Cc1ccccc1)[C@H](O)CNCc1cccc(C(F)(F)F)c1)c1cccc(C(=O)N2CCCC2C(=O)c2ccccc2)c1` (stereo partly drawn) [Example 71, 3-(2-Benzoyl-pyrrolidine-1-carbonyl)-N-[(1S,2R)-1-benzyl-2-hydroxy-3-(3-trifluoromethyl-benzylamino)-propyl]-benzamide] has an IC50 of 0.484 µM.
Compound `CC(=O)C1CC(c2ccc(F)cc2)N(C(=O)c2cccc(C(=O)N[C@@H](Cc3ccccc3)[C@H](O)CNCc3cccc(C(F)(F)F)c3)c2)C1` (stereo partly drawn) [Example 64, 3-[4-Acetyl-2-(4-fluoro-phenyl)-pyrrolidine-1-carbonyl]-N-[(1S,2R)-1-benzyl-2-hydroxy-3-(3-trifluoromethyl-benzylamino)-propyl]-benzamide] has an IC50 of 0.026 µM.
`O=C(N[C@@H](Cc1ccccc1)[C@H](O)CNCc1cccc(C(F)(F)F)c1)c1cccc(C(=O)N2CCCC2c2cccnc2)c1` (stereo partly drawn) [Example 13, N-[(1S,2R)-1-Benzyl-2-hydroxy-3-(3-trifluoromethyl-benzylamino)-propyl]-3-(2-pyridin-3-yl-pyrrolidine-1-carbonyl)-benzamide] gave an IC50 of 0.068 µM.
`O=C(N[C@@H](Cc1ccccc1)[C@H](O)CNCc1cccc(C(F)(F)F)c1)c1cccc(C(=O)N2CCCC2c2ccccc2)c1` (stereo partly drawn) [Example 12, N-[(1S,2R)-1-Benzyl-2-hydroxy-3-(3-trifluoromethyl-benzylamino)-propyl]-3-(2-phenyl-pyrrolidine-1-carbonyl)-benzamide] was tested, and the IC50 was 0.075 µM.
In the case of `COc1cccc(CNC[C@@H](O)[C@H](Cc2ccccc2)NC(=O)c2cccc(C(=O)N3CCCC3c3ccccc3)c2)c1` (stereo partly drawn) [Example 22, N-[(1S,2R)-1-Benzyl-2-hydroxy-3-(3-methoxy-benzylamino)-propyl]-3-(2-phenyl-pyrrolidine-1-carbonyl)-benzamide], the IC50 is reported as 0.0312 µM.
`CCn1cc(CNC[C@@H](O)[C@H](Cc2ccccc2)NC(=O)c2cccc(C(=O)N3CCCC3c3ccccc3)c2)cn1` (stereo partly drawn) [Example 23, N-{(1S,2R)-1-Benzyl-3-[(1-ethyl-1H-pyrazol-4-ylmethyl)-amino]-2-hydroxy-propyl}-3-(2-phenyl-pyrrolidine-1-carbonyl)-benzamide] was tested, and the IC50 was 0.0577 µM.
Compound `O=C(N[C@@H](Cc1ccccc1)[C@H](O)CNCc1cccc(OC(F)(F)F)c1)c1cccc(C(=O)N2CCCC2c2cccs2)c1` (stereo partly drawn) [Example 32, N-[(1S,2R)-1-Benzyl-2-hydroxy-3-(3-trifluoromethoxy-benzylamino)-propyl]-3-(2-thiophen-2-yl-pyrrolidine-1-carbonyl)-benzamide] has an IC50 of 0.138 µM.
`CC1CCN(C(=O)c2cccc(C(=O)N[C@@H](Cc3ccccc3)[C@H](O)CNCc3cccc(C(F)(F)F)c3)c2)C1c1ccc(F)cc1` (stereo partly drawn) [Example 63, N-[(1S,2R)-1-Benzyl-2-hydroxy-3-(3-trifluoromethyl-benzylamino)-propyl]-3-[2-(4-fluoro-phenyl)-3-methyl-pyrrolidine-1-carbonyl]-benzamide] gave an IC50 of 0.001 µM.
`Cc1cc(C(=O)N[C@@H](Cc2ccccc2)[C@H](O)CNCc2cccc(C(F)(F)F)c2)cc(C(=O)N2CCCC2c2cccs2)c1` (stereo partly drawn) [Example 54, N-[(1S,2R)-1-Benzyl-2-hydroxy-3-(3-trifluoromethyl-benzylamino)-propyl]-3-methyl-5-(2-thiophen-2-yl-pyrrolidine-1-carbonyl)-benzamide] gave an IC50 of 0.0019 µM.
Compound `Cn1ccc(C2CCCN2C(=O)c2cccc(C(=O)N[C@@H](Cc3ccccc3)[C@H](O)CNCc3cccc(C(F)(F)F)c3)c2)n1` (stereo partly drawn) [Example 14, N-[(1S,2R)-1-Benzyl-2-hydroxy-3-(3-trifluoromethyl-benzylamino)-propyl]-3-[2-(1-methyl-1H-pyrazol-3-yl)-pyrrolidine-1-carbonyl]-benzamide] has an IC50 of 0.063 µM.
`O=C(NCc1ccccn1)c1cccc(C(=O)N[C@@H](Cc2ccccc2)[C@H](O)CNCc2cccc(OC(F)(F)F)c2)c1` [Example 6, N-[(1S,2R)-1-Benzyl-2-hydroxy-3-(3-trifluoromethoxy-benzylamino)-propyl]-N′-pyridin-2-ylmethyl-isophthalamide] was tested, and the IC50 was 0.52 µM.
With `O=C(N[C@@H](Cc1ccccc1)[C@H](O)CNCc1cccc(C(F)(F)F)c1)c1cccc(C(=O)N2CCCC2c2cccc(F)c2)c1` (stereo partly drawn) [Example 68, N-[(1S,2R)-1-Benzyl-2-hydroxy-3-(3-trifluoromethyl-benzylamino)-propyl]-3-[2-(3-fluoro-phenyl)-pyrrolidine-1-carbonyl]-benzamide] the IC50 was 0.002 µM.
Work on `Cc1csc([C@H]2CCCN2C(=O)c2cc(C(=O)N[C@@H](Cc3ccccc3)[C@H](O)CNCc3cccc(OC(F)(F)F)c3)cc(N(C)S(C)(=O)=O)c2)n1` [Example 41, N-[(1S,2R)-1-Benzyl-2-hydroxy-3-(3-trifluoromethoxy-benzylamino)-propyl]-3-(methanesulfonyl-methyl-amino)-5-[(R)-2-(4-methyl-thiazol-2-yl)-pyrrolidine-1-carbonyl]-benzamide] yielded an IC50 of 0.0001 µM.
With `CC(C)CC1CCCN1C(=O)c1cccc(C(=O)N[C@@H](Cc2ccccc2)[C@H](O)CNCc2cccc(C(F)(F)F)c2)c1` (stereo partly drawn) [Example 70, N-[(1S,2R)-1-Benzyl-2-hydroxy-3-(3-trifluoromethyl-benzylamino)-propyl]-3-(2-isobutyl-pyrrolidine-1-carbonyl)-benzamide] the IC50 was 0.147 µM.
